In article PMC4506092, “Utilizing Chemical Genomics to Identify Cytochrome b as a Novel Drug Target for Chagas Disease” (PLoS Pathogens, 2015):

Experiments:
[1] = molecular target: T. cruzi cytochrome bc1 (complex III), wild-type (Trypanosoma cruzi, UniProt Q9TED7); assay: T. cruzi complex III activity (decylubiquinol / cytochrome c reaction), wild-type; assay type: biochemical; details: digitonin-permeabilized epimastigotes
Procedure: T. cruzi epimastigotes ([…], density of 5 × 10^7 parasites / mL) were harvested by centrifugation (800 × g for 5 minutes at 4°C) and resuspended at 10 mg / mL of protein in buffer A containing 0.1 mg digitonin / mg protein. The parasites were then incubated with the detergent for 10 minutes at 26°C. The pellet fraction was collected by centrifugation (13,000 × g for 5 min at 4°C) and immediately used in the complex III assay.
Complex III activity was monitored using a coupled decylubiquinol / cytochrome c reaction. Decylubiquinone was first reduced to decylubiquinol as described. […] The reduction of cytochrome c was monitored at 550 nm using the SpectraMax Plus384 absorbance microplate reader. Blank samples containing all components excluding decylubiquinol were processed in parallel and absorbance values were subtracted from sample absorbance values to specifically measure […] reduction of cytochrome c. All sample and blank wells were prepared in triplicate. For IC50 determination, the slope of the linear portion of the corrected respiration trace was determined, and normalized to the slope obtained for 0.2% DMSO condition.

[2] = Mammalian cell cytotoxicity assay (CellTiter-Glo); assay type: cell-based, mouse; details: mouse; NIH/3T3, 96 hours; read-out: CC50, 3T3 cell line
Procedure: NIH/3T3 fibroblast cells were maintained in RPMI-1640 medium supplemented with 10% heat-inactivated FBS and 100 IU penicillin / 100 μg streptomycin per mL at 37°C / 5% CO2. For compound screening, cells were diluted to 4 × 10^4 cells / mL in assay medium (RPMI-1640, 5% FBS, and 100 IU penicillin / 100 μg streptomycin per mL) and seeded at 50 μL / well into 384-well plates. Following overnight incubation, compounds were added to each well (0.2% DMSO final concentration) and plates were further incubated for 96 hours. Cell viability was assessed using the CellTiter-Glo Luminescent Cell Viability Assay (Promega). Measured luminescence values were normalized to the value obtained for 0.2% DMSO, and plotted against the corresponding compound concentration for half maximal cytotoxic concentration (CC50) value determination.

in vivo = details: mouse

Sequence of T. cruzi cytochrome bc1 (complex III), wild-type (Q4DU59 entry or part of it): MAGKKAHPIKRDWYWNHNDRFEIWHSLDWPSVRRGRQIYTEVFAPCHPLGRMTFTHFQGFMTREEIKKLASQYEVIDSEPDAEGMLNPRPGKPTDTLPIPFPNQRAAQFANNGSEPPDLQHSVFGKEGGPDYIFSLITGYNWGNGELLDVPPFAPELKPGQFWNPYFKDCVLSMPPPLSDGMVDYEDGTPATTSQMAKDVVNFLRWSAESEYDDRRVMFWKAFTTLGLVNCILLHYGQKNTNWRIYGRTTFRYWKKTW
Sequence of T. cruzi cytochrome bc1 (complex III), wild-type (Q9TED7 entry or part of it): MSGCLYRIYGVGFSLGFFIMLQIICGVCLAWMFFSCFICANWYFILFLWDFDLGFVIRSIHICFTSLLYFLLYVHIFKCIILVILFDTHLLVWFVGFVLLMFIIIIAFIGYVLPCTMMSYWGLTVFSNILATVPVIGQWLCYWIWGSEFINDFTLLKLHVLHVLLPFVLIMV

Work on CCc1c(C)c(C#N)c2nc3ccccc3n2c1O [GNF7686] yielded an IC50 [1] of 400 nM, a CC50 [2] greater than 20000 nM and a clearance (in vivo) of 53 mL/min/kg. For the same compound, the bioavailability (in vivo; po) was 6%.
